Measurements published in patent US20220062340A1, “IMMUNOTHERAPEUTIC METHODS AND COMPOSITIONS” (KING'S COLLEGE LONDON, priority 2018, published 2022).
Several values for one entry are separate records, joined by “and”; a condition that tells them apart may be missing. Equal values may be shown once.

Key:
RARα = target: T1, RARα (Homo sapiens, UniProt P10276); assay: Selectivity profile against human RARs (RARα agonism); type: biochemical
T1 sequence (P10276 1-462): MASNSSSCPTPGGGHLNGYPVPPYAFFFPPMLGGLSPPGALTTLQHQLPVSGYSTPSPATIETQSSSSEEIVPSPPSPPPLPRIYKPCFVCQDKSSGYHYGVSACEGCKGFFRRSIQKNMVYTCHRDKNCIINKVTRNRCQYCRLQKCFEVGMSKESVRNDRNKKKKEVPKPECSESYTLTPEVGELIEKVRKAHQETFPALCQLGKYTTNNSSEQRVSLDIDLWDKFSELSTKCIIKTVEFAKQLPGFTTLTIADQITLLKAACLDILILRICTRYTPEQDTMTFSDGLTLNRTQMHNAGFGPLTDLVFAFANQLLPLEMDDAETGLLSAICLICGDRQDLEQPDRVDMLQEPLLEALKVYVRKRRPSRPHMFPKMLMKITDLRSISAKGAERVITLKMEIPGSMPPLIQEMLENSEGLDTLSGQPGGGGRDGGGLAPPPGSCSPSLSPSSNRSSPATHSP

RARβ = target: T2, RARβ (Homo sapiens, UniProt P10826); assay: Selectivity profile against human RARs (RARβ); type: biochemical
T2 sequence (P10826 1-455): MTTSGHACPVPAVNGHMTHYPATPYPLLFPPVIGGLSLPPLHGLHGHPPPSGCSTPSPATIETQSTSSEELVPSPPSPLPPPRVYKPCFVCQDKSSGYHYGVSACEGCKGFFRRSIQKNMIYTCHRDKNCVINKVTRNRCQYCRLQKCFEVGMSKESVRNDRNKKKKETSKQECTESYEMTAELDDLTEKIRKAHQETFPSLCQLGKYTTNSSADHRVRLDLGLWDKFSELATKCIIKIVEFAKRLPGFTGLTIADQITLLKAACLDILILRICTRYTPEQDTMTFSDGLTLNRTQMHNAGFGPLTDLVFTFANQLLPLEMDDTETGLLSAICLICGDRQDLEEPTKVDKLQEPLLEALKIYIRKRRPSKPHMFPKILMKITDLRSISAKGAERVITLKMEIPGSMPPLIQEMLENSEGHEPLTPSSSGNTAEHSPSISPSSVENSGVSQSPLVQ

RAR γ = target: T3, RAR γ (Homo sapiens, UniProt P13631); assay: Selectivity profile against human RARs (RARγ); type: biochemical
T3 sequence (P13631 1-454): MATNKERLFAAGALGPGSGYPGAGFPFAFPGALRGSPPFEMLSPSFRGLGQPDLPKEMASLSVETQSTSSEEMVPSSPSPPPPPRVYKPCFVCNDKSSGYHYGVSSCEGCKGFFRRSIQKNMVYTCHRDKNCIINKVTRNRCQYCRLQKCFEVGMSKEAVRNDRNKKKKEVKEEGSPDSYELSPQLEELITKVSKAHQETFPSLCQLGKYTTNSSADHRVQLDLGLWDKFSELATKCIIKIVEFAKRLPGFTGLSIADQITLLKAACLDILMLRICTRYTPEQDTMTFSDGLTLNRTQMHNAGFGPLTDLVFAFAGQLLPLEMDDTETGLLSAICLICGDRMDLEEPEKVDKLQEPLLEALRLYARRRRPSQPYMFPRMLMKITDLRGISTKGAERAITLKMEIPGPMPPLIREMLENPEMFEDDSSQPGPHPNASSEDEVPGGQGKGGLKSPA

integrin α4β7 on Tregs = assay: α4β7 expression on ex vivo expanded CD45RA+ Tregs from CD patients (flow cytometry); type: cell-based, human; conditions: CD4+CD25hiCD127loCD45RA+ Tregs cultured with rapamycin and high dose IL-2 plus the agonist; mean ± SD
Protocol: “Complete X-VIVO-15” (Lonza, Walkersville, MD) was used for ex vivo Treg expansion, Treg cytokine challenge experiments and Treg suppression assays. This was supplemented with 100 nM or 10 nM Rapamycin and all-trans retinoic acid (ATRA) 2 μM or 1 nM, or Rapamycin and RAR568 1 nM.
FACS-sorted Treg populations were plated at 1×10^6 or 0.5×10^6 in X-VIVO-15 medium and activated with anti-CD3/anti-CD28 coated beads (Dynabeads®, Invitrogen, Paisley, UK) at 1:1 bead: cell ratio. Rapamycin was added at day 0 of culture at a final concentration of 100 nM/L +/−ATRA 1 nM/L or RAR568 1 nM/L. Next, 1,000 IU/ml recombinant human IL-2 (rhlL-2) (Proleukin®, Novartis, Camberley, UK) was added at day 5 of culture. Cells were re-stimulated every 10-12 days and expanded for a total of 24-30 days. The phenotype and suppressive ability were assessed at the end of the culture period.
Flow cytometry panels have been designed to assess the subtypes of regulatory T cells in patients with CD as well as their expression of gut homing molecules. Gating was performed based on natural populations when assessing for CD4^+CD25^highCD127low populations, as well as for CD45RA^+ Treg populations. Additionally, to minimize bias in the assessment of expression of gut homing markers and transcription factors, a fluorochrome minus one (FMO) panel was added for each marker of interest in each experiment that was performed. […]

Effector T cells (Teff) = assay: Treg suppression assay (proliferation of CFSE-labelled Teff); type: cell-based, human; conditions: lowest (8:1) Teff:Treg titration, FIG. 2e
Protocol: Effector T cells (Teff) were labelled with carboxyfluorescein succinimidyl ester (CFSE, Invitrogen) according to standard protocols. Cells were washed with phosphate buffered saline (PBS) to remove excess protein. Cells were then incubated with a 1 μM/L CFSE solution in the dark at room temperature for 4 minutes. The reaction was then quenched with 9 ml of complete medium.
Teff were activated with anti-CD3/anti-CD28 micro beads at a bead: Teff ratio of 0.02:1. 1×10^5 Teff were then cultured either alone or with Tregs in serial dilutions. The ratios of Teff: Treg were 1:1, 2:1, 4:1, and 8:1. This was done in X-VIVO-15 and proliferation rates were assessed by flow cytometry after 5 days of incubation.
Percentage suppression (S) of proliferation was calculated using the following formula:
Where c=percentage of proliferating precursors in the presence of Tregs and d=percentage of proliferating precursors in the absence of Tregs.

CCOc1c(Cl)cc(C(=O)Nc2ccc(C(=O)O)c(C)c2)cc1OC(C)C [RAR568]
EC50 (RARα): 0.59 nM
selectivity for RARα over RARβ (RARβ): 290 fold
selectivity over RAR γ (RAR γ): > 13,000 fold
α4β7 expression of expanded Tregs (integrin α4β7 on Tregs): 95.9±1.93 and 95.89±1.93
Suppressive ability of expanded Tregs (Effector T cells (Teff)): highly suppressive even at the lowest (8:1) titration
